IC50 data for 15 compounds are collected here from ChEMBL document CHEMBL1157980, “Guaianolides as immunomodulators. Synthesis and biological activities of dehydrocostus lactone, mokko lactone, eremanthin, and their derivatives” (J Nat Prod, 1999).

Where only a bound is given, the exact number is not on record here.

For test [1], the system named is A549. Briefly: Inhibition of IL-1-beta-induced ICAM1 expression in human A549 cells. The format is functional, cell-based.
Test [2] can be described thus: Inhibition of killing activity of CD8+ specific mouse CTL-OE4 cells. Format: functional, cell-based.

As a reminder, the IC50 is the concentration at which inhibition is half-maximal. `C=C1CC[C@@]23O[C@]2(C)CC[C@H]2C(=C)C(=O)O[C@@H]2[C@@H]13`: the IC50 in test [1] and in test [2] was 7 µM in each case.
Take `C=C1CC[C@H]2C(C)=CCC3=C(C)C(=O)O[C@@H]3[C@@H]12`: the results for the IC50 in test [1] and in test [2] were 142 µM and greater than 100 µM, respectively.
On to `C=C1CC[C@@]23O[C@]2(C)CC[C@@H]2[C@H](OC(=O)[C@H]2C)[C@@H]13`, for which the IC50 in test [1] is 253 µM; in test [2], greater than 1000 µM.
With `C=C1CC[C@]23O[C@@]2(C)CCC2=C(C)C(=O)O[C@@H]2[C@@H]13`, the IC50 in test [1] was 136 µM; in test [2], greater than 1000 µM.
Taken in the same sequence, the figures for `C=C1CC[C@@H]2[C@H]1[C@H]1OC(=O)C(=C)[C@@H]1C[C@H]1O[C@@]21C` were 6 µM and 8 µM.
Consider `C=C1CC[C@@H]2[C@H](OC(=O)[C@H]2C)[C@H]2C(C)=CC[C@@H]12`, for which the IC50 in test [2] was greater than 100 µM.
For `C=C1CC[C@]23O[C@@]2(C)CC[C@H]2C(=C)C(=O)O[C@@H]2[C@@H]13`, the IC50 in test [1] amounted to 10 µM; in test [2] it was 7 µM.
The like results for `C=C1CC[C@H]2C(=C)CCC3=C(C)C(=O)O[C@@H]3[C@@H]12` were, in that order, 442 µM and 50 µM.
Taken in the same sequence, the figures for `C=C1CC[C@]23O[C@@]2(C)CC[C@@H]2[C@H](OC(=O)[C@H]2C)[C@@H]13` were 504 µM and 597 µM.
Taken in the same sequence, the figures for `C=C1CC[C@@H]2[C@H]1[C@H]1OC(=O)[C@@H](C)[C@@H]1C[C@H]1O[C@@]21C` were 117 µM and 422 µM.
As to `C=C1CCC2=C(C)CC[C@H]3C(=C)C(=O)O[C@@H]3[C@@H]12`, the IC50 in test [1] was found to be 8 µM; in test [2], 15 µM.
On to `C=C1CC[C@H]2C(=C)CC[C@H]3C(=C)C(=O)O[C@@H]3[C@@H]12` [DEHYDROCOSTUSLACTONE], for which the IC50 in test [1] amounted to 10 µM; in test [2], 14 µM.
On to `C=C1CC[C@H]2C(C)=CC[C@H]3C(=C)C(=O)O[C@@H]3[C@@H]12` [EREMANTHIN], for which the figures for the IC50 in test [1] and in test [2] were 46 µM and 11 µM, respectively.
In turn, `C=C1C(=O)O[C@@H]2[C@H]3C(C)=CC[C@H]3C(=C)CC[C@@H]12` [ISODEHYDROCOSTUS LACTONE] registered an IC50 in test [2] of 16 µM.
On to `C=C1CC[C@H]2C(=C)CC[C@@H]3[C@H](OC(=O)[C@H]3C)[C@@H]12` [MOKKO LACTONE], for which the IC50 in test [1] was 251 µM; in test [2] it was greater than 1000 µM.
